Measurements reported in patent publication US9062043B2, “Fused tricyclic compounds as serine-threonine protein kinase and PARP modulators” (SENHWA BIOSCIENCES, INC., priority 2006, dated 2015).

Assays:
MCF-7 xenografts = test: Tumor suppression in MCF-7 xenograft animals; format: in vivo, mice; details: oral 100 mg/kg
Method: (§1) Animals were handled under laminar-flow hoods.
(§2) Gemar™ administered at a dose of 80 mg/kg IP Q3D was used as a positive control.

MiaPaca xenografts = test: Tumor suppression in MiaPaca xenograft mice; format: in vivo
PC-3 xenografts = test: Tumor suppression in PC-3 xenograft animals; format: in vivo, mice; details: oral 150 mg/kg
Method: as §1, §2

caspase-3 = test: Caspase-3 staining in tumors as biomarker; format: in vivo, mice; details: 60 mg/kg IV
Method: Caspase staining also was assessed as a biomarker for compound A1 treatment of tumors.

[1] = Pharmacokinetics in ICR mice after IV and PO dose; format: in vivo
SK-OV-3 = test: Cell proliferation assay, Alamar Blue, SK-OV-3; format: cell-based; details: Homo sapiens; SK-OV-3 cells, anti-proliferative
Method: (§3) A representative cell-proliferation assay protocol using Alamar Blue dye (stored at 4° C., use 20 ul per well) is described hereafter.
(§4) c. Plate 4,000-5,000 cells per well in 100 μl of medium and seed into a 96-well plate according to the following plate layout. Add cell culture medium only to wells B10 to B12. Wells B1 to B9 have cells but no compound added.
(§5) d. Add 100 μl of 2× drug dilution to each well in a concentration shown in the plate layout above. At the same time, add 100 μl of media into the control wells (wells B10 to B12). Total volume is 200 μl/well.
(§6) e. Incubate four (4) days at 37° C., 5% CO2 in a humidified incubator.
(§7) f. Add 20 μl Alamar Blue reagent to each well.
(§8) g. Incubate for four (4) hours at 37° C., 5% CO2 in a humidified incubator.
(§9) h. Record fluorescence at an excitation wavelength of 544 nm and emission wavelength of 590 nm using a microplate reader.
(§10) In the assays, cells are cultured with a test compound for approximately four days, the dye then is added to the cells and fluorescence of […] dye is detected after approximately four hours. Different types of cells can be utilized in the assays (e.g., HCT-116 human colorectal carcinoma cells, PC-3 human prostatic cancer cells and MiaPaca human pancreatic carcinoma cells). Anti-proliferative effects of representative compounds are provided hereafter.

MCF-7 = test: Cell proliferation assay, Alamar Blue, MCF-7; format: cell-based; details: Homo sapiens, MCF7; MCF-7 cells, anti-proliferative
Method: as §3, §4, §5, §6, §7, §8, §9, §10

LNCaP = test: Cell proliferation assay, Alamar Blue, LNCaP; format: cell-based; details: Homo sapiens; LNCaP cells, anti-proliferative
Method: as §3, §4, §5, §6, §7, §8, §9, §10

A375 = test: Cell proliferation assay, Alamar Blue, A375; format: cell-based; details: Homo sapiens, A-375; A375 cells, anti-proliferative
Method: as §3, §4, §5, §6, §7, §8, §9, §10

HL-60 = test: Cell proliferation assay, Alamar Blue, HL-60; format: cell-based; details: Homo sapiens; HL-60 cells, anti-proliferative
Method: as §3, §4, §5, §6, §7, §8, §9, §10

PanC1 = test: Cell proliferation assay, Alamar Blue, PanC1; format: cell-based; details: Homo sapiens, PANC-1; PanC1 cells, anti-proliferative; read-out: IC50 (uM) PanC1
Method: as §3, §4, §5, §6, §7, §8, §9, §10

COLO 205 = test: Cell proliferation assay, Alamar Blue, COLO 205; format: cell-based; details: Homo sapiens; COLO 205 cells, anti-proliferative
Method: as §3, §4, §5, §6, §7, §8, §9, §10

MDAMB231 = test: Cell proliferation assay, Alamar Blue, MDAMB231; format: cell-based; details: Homo sapiens, MDA-MB-231; MDAMB231 cells, anti-proliferative
Method: as §3, §4, §5, §6, §7, §8, §9, §10

H460 = test: Cell proliferation assay, Alamar Blue, H460; format: cell-based; details: Homo sapiens, NCI-H460; H460 cells, anti-proliferative
Method: as §3, §4, §5, §6, §7, §8, §9, §10

Raji = test: Cell proliferation assay, Alamar Blue, Raji; format: cell-based; details: Homo sapiens; Raji cells, anti-proliferative
Method: as §3, §4, §5, §6, §7, §8, §9, §10

[2] = test system: MiaPaca human pancreatic carcinoma cells; test: Cell proliferation assay, Alamar Blue, MiaPaca; format: cell-based; details: MIA PaCa-2, Table 16
Method: as §3, §4, §5, §6, §7, §8, §9, §10

HT29 = test: Cell proliferation assay, Alamar Blue, HT29; format: cell-based; details: Homo sapiens, HT-29; Table 16
Method: as §4, §5, §6, §7, §8, §9, §10

A549 = test: Cell proliferation assay, Alamar Blue, A549; format: cell-based; details: Homo sapiens, Table 16
Method: as §4, §5, §6, §7, §8, §9, §10

[3] = test system: PC-3 human prostatic cancer cells; test: Cell proliferation assay, Alamar Blue, PC-3; format: cell-based; details: Table 16, read-out: IC50 PC3
Method: as §3, §4, §5, §6, §7, §8, §9, §10

BxPC3 = test: Cell proliferation assay, Alamar Blue, BxPC3; format: cell-based; details: Homo sapiens, BXPC-3; Table 16
Method: as §4, §5, §6, §7, §8, §9, §10

Jurkat = test: Cell proliferation assay, Alamar Blue, Jurkat; format: cell-based; details: Homo sapiens, Table 16;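 further: cells exposed to compound for about 4 days at 37 °C, then Alamar Blue added and fluorescence read after about 4 h, controls given medium without drug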
Hs578T = test: Cell proliferation assay, Alamar Blue, Hs578T; format: cell-based; details: Homo sapiens, Hs-578T; Table 16
[4] = test system: HCT-116 human colorectal carcinoma cells; test: Cell proliferation assay, Alamar Blue, HCT-116; format: cell-based; details: HCT-116, Table 16, second HCT-116 column;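 further: cells exposed to compound for about 4 days, then Alamar Blue added and fluorescence read after about 4 h, medium-only wells as control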
H1299 = test: Cell proliferation assay, Alamar Blue, H1299; format: cell-based; details: Homo sapiens, NCI-H1299; Table 16
Method: as §4, §5, §6, §7, §8, §9, §10

## O=C(O)c1ccc2c(c1)nc(Nc1cccc(Cl)c1)c1ccncc12 [compound A1]
MCF-7 xenografts
  Tumor growth inhibition: significantly inhibited tumor growth
MiaPaca xenografts; MiaPaca xenograft, oral 100 mg/kg QDx8 then 200 mg/kg QDx5, relative to untreated control
  Tumor growth inhibition: significantly inhibited tumor growth
PC-3 xenografts
  Tumor growth inhibition: significantly inhibited tumor growth
caspase-3
  Caspase-3 cell staining levels vs untreated control cells: four-fold greater
[1]; IV 5 mg/kg
  CLs: 25 mL/min/kg
  Cp0-exp: 13201 ng/mL
  Kel: 0.1586 h⁻¹
[1]; PO 25 mg/kg
  F(0-8 h): 10.9%
  F(0-inf h): 18.7%
  Kel: 0.1076 h⁻¹
[1]; mouse, plasma, IV 5 mg/kg
  AUC(0-inf): 3360 ng·h/mL
  AUC(0-t): 3340 ng·h/mL
  Vd: 9.4 L/kg
[1]; mouse, plasma, PO 25 mg/kg
  AUC(0-inf): 3150 ng·h/mL
  AUC(0-t): 2920 ng·h/mL
  Cmax: 343 ng/mL
  Tmax: 15 min

## O=C(O)c1ccc2c(c1)nc(Nc1cccc(C(F)(F)F)c1)c1nc(NC3CC3)ncc12 [compound A3]
MiaPaca xenografts; MiaPaca xenografts, IV administration
  Tumor progression inhibition: significantly inhibited tumor progression

## O=C(O)c1ccc2c(c1)nc(Nc1cc(Cl)cc(Cl)c1)c1ccsc12 [drawing 991]
SK-OV-3
  IC50: 11.7 µM
MCF-7
  IC50: 13.7 µM
LNCaP
  IC50: 6.23 µM
A375
  IC50: 19.9 µM
HL-60
  IC50: 1.94 µM
PanC1
  IC50: 20.3 µM
COLO 205
  IC50: 1.01 µM
MDAMB231
  IC50: 3.89 µM
H460
  IC50: 12.3 µM
Raji
  IC50: 17.7 µM

## O=C(O)c1ccc2c(c1)nc(Nc1cc(Cl)cc(Cl)c1)c1ccsc12 [drawing 984]
[2]
  IC50: 14.6 µM
HT29
  IC50: 13 µM
A549
  IC50: 13.2 µM
[3]
  IC50: 32.2 µM
BxPC3
  IC50: 2.1 µM
Jurkat
  IC50: 4.31 µM
Hs578T
  IC50: 7.67 µM
[4]
  IC50: 8.76 µM
H1299
  IC50: 0.97 µM

## O=C(O)c1ccc2c(c1)nc(Nc1cc(F)cc(F)c1)c1ccsc12
[2]
  IC50: 6.36 µM
HT29
  IC50: 2 µM
A549
  IC50: 7.45 µM
[3]
  IC50: 6.11 µM
Jurkat
  IC50: 5.86 µM
Hs578T
  IC50: 7.31 µM
[4]
  IC50: > 10 µM
H1299
  IC50: 8.14 µM
